According to patent US9655891B1, “Use of isoquinoline derivatives for diabetic wound healing” (ZIH YUAN TANG Biotechnology Co., Ltd, priority 2016, dated 2017):

Legend:
[1] = tested on: wounds of STZ induced diabetic rats; assay: Excisional full-thickness skin wound healing in STZ induced diabetic rats (recovery rate); format: in vivo, Wistar rats
Method: Salsolinol ointments at 0.01 mg/g, 0.03 mg/g, 0.1 mg/g, and 0.3 mg/g were prepared respectively by dissolving 0.5 mg, 1.5 mg, 5 mg, and 15 mg of salsoinol in 2.5 mL of glycerol (Sigma Inc., MO, USA) plus 1.0 mL of Creagel emulsifier (First Chemical, TPE, Taiwan) and 45.5 mL of distilled water. Vehicle was composed of glycerol (2.5 mL), Creagel emulsifier (1.0 mL), and distilled water (45.5 mL).
Swivazin®-HN cream was used as positive control for treating the wounds of STZ induced diabetic rats, which contained asiaticoside (4 mg/g), isolated from Centella asiatica. […]. Ethnopharmacology 65 (1999): 1-11].
Adult male Wistar rats were used at four weeks of age, purchased from BioLASCO Taiwan, and were acclimatized in a room with 12-12 h light (7:00 A.M. to 7:00 P.M.)-dark (7:00 P.M. to 7:00 A.M.) cycle, a temperature of 23±1° C., and a humidity of 65±5%.
Each rat had free access to both water and standard rodent soft chow ad libitum. STZ was injected intraperitoneally at a dose of 65 mg/Kg body weight.
All experimental procedures were approved by and performed in compliance with the guidelines of the Institutional Animal Care and Use Committee (IACUC). All surgeries were conducted while animals were under continuous anesthesia with 4% isoflurane.
The dorsal skin was shaved and then disinfected with 10% povidone-iodine before an excisional full-thickness square-shaped skin wound (1.5×1.5 cm) was induced using a sterile wound maker. Animal was then housed alone in its cage to avoid any further wound damage.
. The groups were administered at the same amount once daily and the wounds were photopictured on Day 1, Day 3, Day 5, Day 7, Day 10, and Day 15 and the sizes of the wounds were analyzed using Visual Basic 6.0. Wound closure at experimental time points was calculated as percentage of initial wound area, called as “recovery rate.”

[2] = tested on: AMP-dependent protein kinase (AMPK); settings: disclosed in U.S. patent application Ser. No. 14/492,547; cited from earlier work

Q: Which “recovery rate (in words)” value ([1]; FIG. 2, salsolinol 0.01 mg/g, Day 7-15) does the source give for `CC1NCCc2cc(O)c(O)cc21` (stereo not shown) [salsolinol] here?
A: relatively improved recovery rate

Q: And the “wound closure and healing” value ([1]; FIG. 2, salsolinol at all the concentrations (0.01, 0.03, 0.1, 0.3 mg/g))?
A: could enhance the wound closure and healing

Q: What about the “recovery rate (wound closure as percentage of initial wound area)” value ([1]; FIG. 2, salsolinol ointment 0.01 mg/g once daily, topical, Day 15) of the same compound?
A: over 97%

Q: What about the “difference in recovery between D+Salsolinol and Swivazin (DP, positive control)” value ([1]; FIG. 3) of the same compound?
A: no obvious difference

Q: What about the “recovery rate compared with groups without treatment (DC) or vehicle (DV)” value ([1]; FIG. 3, D+Salsolinol) of the same compound?
A: significantly increased recovery rate

Q: What about the “activation of AMPK” value [2] of the same compound?
A: can activate AMP-dependent protein kinase (AMPK)

Q: For `COc1ccc(C[C@H]2c3cc(O)c(OC)cc3CCN2C)cc1O` [reticuline, reference compound], which “activation of AMPK” value [2] is on record?
A: can activate AMP-dependent protein kinase (AMPK)
